Experimental data as given in publication PMC12959773 (Protein & Cell, 2025).
Positions count from the first letter of the chain named.

Tests used:
SLC7A13-SLC3A1 complex [1] = biological target: T1, SLC7A13-SLC3A1 complex (Homo sapiens, UniProt Q8TCU3); assay: microscale thermophoresis; settings: read-out: binding affinity
T1 construct: heterodimeric light/heavy chain transporter, dimer of heterodimers; ectopically expressed in HEK293T / HEK293 cells (Expi293 for cryo-EM); with Amino acid transporter heavy chain SLC3A1
T1 sequence (Q8TCU3 1-470): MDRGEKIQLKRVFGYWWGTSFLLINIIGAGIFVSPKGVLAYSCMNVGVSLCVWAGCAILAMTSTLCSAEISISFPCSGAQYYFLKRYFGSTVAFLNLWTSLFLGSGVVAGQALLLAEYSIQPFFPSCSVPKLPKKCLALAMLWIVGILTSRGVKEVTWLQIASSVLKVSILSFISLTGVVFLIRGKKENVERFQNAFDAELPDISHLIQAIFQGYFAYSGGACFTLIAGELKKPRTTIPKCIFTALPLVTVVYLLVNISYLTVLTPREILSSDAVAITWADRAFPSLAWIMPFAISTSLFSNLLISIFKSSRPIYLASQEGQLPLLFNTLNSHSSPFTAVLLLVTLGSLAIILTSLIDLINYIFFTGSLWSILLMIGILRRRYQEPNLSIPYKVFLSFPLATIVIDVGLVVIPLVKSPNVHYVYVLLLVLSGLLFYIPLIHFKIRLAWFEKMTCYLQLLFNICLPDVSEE
T1 sequence (Q07837 1-685 partner): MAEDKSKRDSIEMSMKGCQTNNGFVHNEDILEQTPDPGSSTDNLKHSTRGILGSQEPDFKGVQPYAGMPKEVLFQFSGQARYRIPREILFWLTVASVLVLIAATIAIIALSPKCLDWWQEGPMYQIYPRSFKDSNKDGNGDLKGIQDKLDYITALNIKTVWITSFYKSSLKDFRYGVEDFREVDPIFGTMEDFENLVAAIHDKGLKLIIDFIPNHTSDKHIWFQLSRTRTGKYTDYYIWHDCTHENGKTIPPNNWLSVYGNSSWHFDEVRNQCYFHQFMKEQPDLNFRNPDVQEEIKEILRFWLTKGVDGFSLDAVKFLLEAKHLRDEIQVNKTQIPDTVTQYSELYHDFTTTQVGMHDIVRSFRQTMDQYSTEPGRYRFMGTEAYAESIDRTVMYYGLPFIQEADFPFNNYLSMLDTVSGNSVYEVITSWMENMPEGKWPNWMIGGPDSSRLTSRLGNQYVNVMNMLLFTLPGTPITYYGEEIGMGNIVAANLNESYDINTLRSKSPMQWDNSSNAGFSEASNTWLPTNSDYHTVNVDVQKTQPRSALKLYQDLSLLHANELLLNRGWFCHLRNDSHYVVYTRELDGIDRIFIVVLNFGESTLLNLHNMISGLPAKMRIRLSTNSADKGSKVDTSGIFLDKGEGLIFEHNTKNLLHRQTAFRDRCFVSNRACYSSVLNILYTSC

SLC7A13-SLC3A1 complex [2] = biological target: T2, SLC7A13-SLC3A1 complex (Homo sapiens, UniProt Q8TCU3, T225A); assay: [2H]-cystine uptake, isotope tracking; format: cell-based; settings: HEK293 cells transfected with SLC7A13 and SLC3A1; labelled compound
T2 construct: heterodimeric light/heavy chain transporter, dimer of heterodimers; ectopically expressed in HEK293T / HEK293 cells (Expi293 for cryo-EM); with Amino acid transporter heavy chain SLC3A1
T2 sequence (Q8TCU3 1-470 T225A): T1 sequence (Q8TCU3 1-470) with T225A
T2 sequence (Q07837 1-685 partner): T1 sequence (Q07837 1-685 partner)

SLC7A13-SLC3A1 complex [3] = biological target: T3, SLC7A13-SLC3A1 complex (Homo sapiens, UniProt Q8TCU3, F216A); assay: [2H]-cystine uptake, isotope tracking; format: cell-based; settings: HEK293 cells transfected with SLC7A13 and SLC3A1; labelled compound
T3 construct: heterodimeric light/heavy chain transporter, dimer of heterodimers; ectopically expressed in HEK293T / HEK293 cells (Expi293 for cryo-EM); with Amino acid transporter heavy chain SLC3A1
T3 sequence (Q8TCU3 1-470 F216A): T1 sequence (Q8TCU3 1-470) with F216A
T3 sequence (Q07837 1-685 partner): T1 sequence (Q07837 1-685 partner)

- Kd (SLC7A13-SLC3A1 complex [1]): 112 ± 44 µM
Structure (SMILES): N[C@@H](CSSC[C@H](N)C(=O)O)C(=O)O [cystine]
- cystine uptake (SLC7A13-SLC3A1 complex [2]): mutation in any of the seven SLC7A13-specific residues to alanine significantly reduced SLC7A13’s transporter activities
- cystine uptake (SLC7A13-SLC3A1 complex [3]): mutation in any of the seven SLC7A13-specific residues to alanine significantly reduced SLC7A13’s transporter activities
